Laboratory results published in ChEMBL document CHEMBL3045354, “Synthesis, molecular modeling, and biological evaluation of 1,2,4-triazole derivatives containing pyridine as potential anti-tumor agents” (Med Chem Res, 2013).
Calls of active or inactive are those of the source. The calls are words filed in the database; no cut-off is given here.

Assays:
HepG2 = experiment: Antiproliferative activity against Homo sapiens (human) HepG2 cells assessed as growth inhibition after 48 hr by MTT assay; conditions: HepG2, 48 h
HCT-116 [1] = experiment: Antiproliferative activity against Homo sapiens (human) HCT116 cells assessed as growth inhibition after 48 hr by MTT assay; conditions: HCT-116, 48 h
MCF7 = experiment: Antiproliferative activity against Homo sapiens (human) MCF7 cells assessed as growth inhibition after 48 hr by MTT assay; conditions: MCF7, 48 h
HCT-116 [2] = experiment: Induction of apoptosis in Homo sapiens (human) HCT116 cells assessed as PARP cleavage at 0.5 to 8 uM by Western blot analysis; assay type: functional, cell-based
HCT-116 [3] = experiment: Induction of apoptosis in Homo sapiens (human) HCT116 cells assessed as necrotic cells at 8 uM after 24 hr by Annexin V-FITC/PI staining based flow cytometry (reference value: 0.60%); assay type: functional
HCT-116 [4] = experiment: Induction of apoptosis in Homo sapiens (human) HCT116 cells assessed as late apoptotic cells at 8 uM after 24 hr by Annexin V-FITC/PI staining based flow cytometry (reference value: 2.87%); assay type: functional
HCT-116 [5] = experiment: Induction of apoptosis in Homo sapiens (human) HCT116 cells assessed as early apoptotic cells at 8 uM after 24 hr by Annexin V-FITC/PI staining based flow cytometry (reference value: 3.73%); assay type: functional
HCT-116 [6] = experiment: Induction of apoptosis in Homo sapiens (human) HCT116 cells assessed as viable cells at 8 uM after 24 hr by Annexin V-FITC/PI staining based flow cytometry (reference value: 92.80%); assay type: functional; conditions: HCT-116, 24 h, read-out: Activity
HCT-116 [7] = experiment: Induction of apoptosis in Homo sapiens (human) HCT116 cells assessed as necrotic cells at 2 uM after 24 hr by Annexin V-FITC/PI staining based flow cytometry (reference value: 0.60%); assay type: functional
HCT-116 [8] = experiment: Induction of apoptosis in Homo sapiens (human) HCT116 cells assessed as late apoptotic cells at 2 uM after 24 hr by Annexin V-FITC/PI staining based flow cytometry (reference value: 2.87%); assay type: functional
HCT-116 [9] = experiment: Induction of apoptosis in Homo sapiens (human) HCT116 cells assessed as early apoptotic cells at 2 uM after 24 hr by Annexin V-FITC/PI staining based flow cytometry (reference value: 3.73%); assay type: functional
HCT-116 [10] = experiment: Induction of apoptosis in Homo sapiens (human) HCT116 cells assessed as viable cells at 2 uM after 24 hr by Annexin V-FITC/PI staining based flow cytometry (reference value: 92.80%); assay type: functional; conditions: HCT-116, 24 h, read-out: Activity
HCT-116 [11] = experiment: Induction of apoptosis in Homo sapiens (human) HCT116 cells assessed as necrotic cells at 0.5 uM after 24 hr by Annexin V-FITC/PI staining based flow cytometry (reference value: 0.60%); assay type: functional
HCT-116 [12] = experiment: Induction of apoptosis in Homo sapiens (human) HCT116 cells assessed as late apoptotic cells at 0.5 uM after 24 hr by Annexin V-FITC/PI staining based flow cytometry (reference value: 2.87%); assay type: functional
HCT-116 [13] = experiment: Induction of apoptosis in Homo sapiens (human) HCT116 cells assessed as early apoptotic cells at 0.5 uM after 24 hr by Annexin V-FITC/PI staining based flow cytometry (reference value: 3.73%); assay type: functional
HCT-116 [14] = experiment: Induction of apoptosis in Homo sapiens (human) HCT116 cells assessed as viable cells at 0.5 uM after 24 hr by Annexin V-FITC/PI staining based flow cytometry (reference value: 92.80%); assay type: functional; conditions: HCT-116, 24 h, read-out: Activity
HCT-116 [15] = experiment: Induction of apoptosis in Homo sapiens (human) HCT116 cells assessed as increase in cleaved caspase-3 level at 0.5 to 8 uM by Western blot analysis; assay type: functional, cell-based

Row | SMILES | IC50 (HepG2) [µM] | IC50 (HCT-116 [1]) [µM] | IC50 (MCF7) [µM] | further results
1 | O=C(CSc1nnc(-c2ccncc2)n1-c1ccccc1)N/N=C/c1ccc(Br)cc1 | 5.99 | 4.5 | 7.04 | 
2 | Fc1ccc(CSc2nnc(-c3ccncc3)n2-c2ccccc2)cc1 | 15.6 | 12.8 | 21.1 | 
3 | O=[N+]([O-])c1cccc(CSc2nnc(-c3ccncc3)n2-c2ccccc2)c1 | 22 | 19.8 | 18.3 | 
4 | Brc1cccc(CSc2nnc(-c3ccncc3)n2-c2ccccc2)c1 | 7.04 | 8.17 | 10 | Activity (HCT-116 [2]): Active; Activity (HCT-116 [3]): 5.59%; Activity (HCT-116 [4]): 31.69%; Activity (HCT-116 [5]): 12.3%; viability at 8 µM (HCT-116 [6]): 50.4%; Activity (HCT-116 [7]): 1.08%; Activity (HCT-116 [8]): 9.25%; Activity (HCT-116 [9]): 11.39%; viability at 2 µM (HCT-116 [10]): 78.3%; Activity (HCT-116 [11]): 0.28%; Activity (HCT-116 [12]): 3.24%; Activity (HCT-116 [13]): 8.24%; viability at 0.5 µM (HCT-116 [14]): 88.2%; Activity (HCT-116 [15]): Active
5 | Fc1ccccc1CSc1nnc(-c2ccncc2)n1-c1ccccc1 | > 50 | 12 | > 50 | 
6 | Clc1ccc(CSc2nnc(-c3ccncc3)n2-c2ccccc2)cc1 | 16.9 | 10.7 | 13.3 | 
7 | c1ccc(CSc2nnc(-c3ccncc3)n2-c2ccccc2)cc1 | 12.9 | 16.9 | 22.4 | 
8 | O=C(CSc1nnc(-c2ccncc2)n1-c1ccccc1)N/N=C/c1cccc(F)c1 | 24.4 | > 50 | > 50 | 
9 | O=C(CSc1nnc(-c2ccncc2)n1-c1ccccc1)N/N=C/c1ccccc1F | 15.2 | 18 | 22.4 | 
10 | O=C(CSc1nnc(-c2ccncc2)n1-c1ccccc1)N/N=C/C=C/c1ccccc1 | 8.28 | 6.15 | 11.2 | 
11 | COc1ccc(/C=N/NC(=O)CSc2nnc(-c3ccncc3)n2-c2ccccc2)cc1 | 27.1 | 19.2 | 23.7 | 
12 | Clc1ccccc1CSc1nnc(-c2ccncc2)n1-c1ccccc1 | 15.7 | 13.8 | 18.1 | 
13 | O=C(CSc1nnc(-c2ccncc2)n1-c1ccccc1)N/N=C/c1ccc(O)c(O)c1 | 16.9 | 14.7 | 19.7 | 
14 | Clc1cccc(CSc2nnc(-c3ccncc3)n2-c2ccccc2)c1 | 11.2 | 9.82 | 10.5 | 
15 | O=C(CSc1nnc(-c2ccncc2)n1-c1ccccc1)N/N=C/c1cc(Br)cc(Br)c1O | 7.59 | 4.5 | 8.44 | 
16 | Fc1cccc(F)c1CSc1nnc(-c2ccncc2)n1-c1ccccc1 | > 50 | 22.1 | > 50 | 
17 | O=C(CSc1nnc(-c2ccncc2)n1-c1ccccc1)N/N=C/c1ccccc1O | 11.3 | 7.06 | 10 | 
18 | O=C(CSc1nnc(-c2ccncc2)n1-c1ccccc1)N/N=C/c1ccc([N+](=O)[O-])cc1 | 15.9 | 10.2 | 15.3 | 
19 | O=C(CSc1nnc(-c2ccncc2)n1-c1ccccc1)N/N=C/c1cc(Br)ccc1O | 4.39 | 1.99 | 6.46 | Activity (HCT-116 [2]): Active; Activity (HCT-116 [3]): 3.04%; Activity (HCT-116 [4]): 38.01%; Activity (HCT-116 [5]): 27.35%; viability at 8 µM (HCT-116 [6]): 31.6%; Activity (HCT-116 [7]): 2.44%; Activity (HCT-116 [8]): 12.47%; Activity (HCT-116 [9]): 18.85%; viability at 2 µM (HCT-116 [10]): 86.2%; Activity (HCT-116 [11]): 0.72%; Activity (HCT-116 [12]): 3.27%; Activity (HCT-116 [13]): 5.99%; viability at 0.5 µM (HCT-116 [14]): 90%; Activity (HCT-116 [15]): Active
20 | O=C(CSc1nnc(-c2ccncc2)n1-c1ccccc1)N/N=C/c1ccc(O)cc1 | > 50 | > 50 | > 50 | 
21 | O=C(CSc1nnc(-c2ccncc2)n1-c1ccccc1)N/N=C/c1ccccc1 | 18.6 | 14.7 | 23.6 | 
22 | Brc1ccccc1CSc1nnc(-c2ccncc2)n1-c1ccccc1 | 17.1 | 20.2 | 16.1 | 
23 | O=[N+]([O-])c1ccccc1CSc1nnc(-c2ccncc2)n1-c1ccccc1 | > 50 | > 50 | > 50 | 
24 | O=C(CSc1nnc(-c2ccncc2)n1-c1ccccc1)N/N=C/c1ccc(F)cc1 | 9.33 | 7.04 | 12.3 | 
25 | O=[N+]([O-])c1ccc(CSc2nnc(-c3ccncc3)n2-c2ccccc2)cc1 | > 50 | 23.8 | 22.8 | 
26 | Fc1ccc(CSc2nnc(-c3ccncc3)n2-c2ccccc2)c(F)c1 | 10.2 | 11.4 | 14.1 | 
27 | O=C(CSc1nnc(-c2ccncc2)n1-c1ccccc1)N/N=C/c1ccc(Cl)cc1 | 11 | 5.74 | 9.93 | 
28 | Brc1ccc(CSc2nnc(-c3ccncc3)n2-c2ccccc2)cc1 | 12.9 | 11.1 | 12.6 | 
